The text below walks through data of US10870647B2, “Imidazopyridine derivative, method for preparing same, and pharmaceutical composition containing same as active ingredient for preventing or treating cancer” (DAEGU-GYEONGBUK MEDICAL INNOVATION FOUNDATION, priority 2016, dated 2020).

What all share (assay): Kinase selectivity, scanMAX Kinase assay panel (DiscoverX), % control at 1 uM
Type in all cases: binding

Assay [1] addresses T1, scanMAX Kinase assay panel (Homo sapiens, UniProt Q07912).
T1 construct: purchased DiscoverX
The settings on record: TNK2; 1 uM; read-out: Percent Control (%). In short, it runs like this:
(§1)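 Activity was called for kinases showing % control under 35, calculated from compound signal relative to positive and negative controls. Each compound screened at 1 uM against the DiscoverX scanMAX panel.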

The target in assay [2] is T2, scanMAX Kinase assay panel (Homo sapiens, UniProt Q56UN5).
T2 construct: purchased DiscoverX
T2 sequence (Q56UN5 1-1328): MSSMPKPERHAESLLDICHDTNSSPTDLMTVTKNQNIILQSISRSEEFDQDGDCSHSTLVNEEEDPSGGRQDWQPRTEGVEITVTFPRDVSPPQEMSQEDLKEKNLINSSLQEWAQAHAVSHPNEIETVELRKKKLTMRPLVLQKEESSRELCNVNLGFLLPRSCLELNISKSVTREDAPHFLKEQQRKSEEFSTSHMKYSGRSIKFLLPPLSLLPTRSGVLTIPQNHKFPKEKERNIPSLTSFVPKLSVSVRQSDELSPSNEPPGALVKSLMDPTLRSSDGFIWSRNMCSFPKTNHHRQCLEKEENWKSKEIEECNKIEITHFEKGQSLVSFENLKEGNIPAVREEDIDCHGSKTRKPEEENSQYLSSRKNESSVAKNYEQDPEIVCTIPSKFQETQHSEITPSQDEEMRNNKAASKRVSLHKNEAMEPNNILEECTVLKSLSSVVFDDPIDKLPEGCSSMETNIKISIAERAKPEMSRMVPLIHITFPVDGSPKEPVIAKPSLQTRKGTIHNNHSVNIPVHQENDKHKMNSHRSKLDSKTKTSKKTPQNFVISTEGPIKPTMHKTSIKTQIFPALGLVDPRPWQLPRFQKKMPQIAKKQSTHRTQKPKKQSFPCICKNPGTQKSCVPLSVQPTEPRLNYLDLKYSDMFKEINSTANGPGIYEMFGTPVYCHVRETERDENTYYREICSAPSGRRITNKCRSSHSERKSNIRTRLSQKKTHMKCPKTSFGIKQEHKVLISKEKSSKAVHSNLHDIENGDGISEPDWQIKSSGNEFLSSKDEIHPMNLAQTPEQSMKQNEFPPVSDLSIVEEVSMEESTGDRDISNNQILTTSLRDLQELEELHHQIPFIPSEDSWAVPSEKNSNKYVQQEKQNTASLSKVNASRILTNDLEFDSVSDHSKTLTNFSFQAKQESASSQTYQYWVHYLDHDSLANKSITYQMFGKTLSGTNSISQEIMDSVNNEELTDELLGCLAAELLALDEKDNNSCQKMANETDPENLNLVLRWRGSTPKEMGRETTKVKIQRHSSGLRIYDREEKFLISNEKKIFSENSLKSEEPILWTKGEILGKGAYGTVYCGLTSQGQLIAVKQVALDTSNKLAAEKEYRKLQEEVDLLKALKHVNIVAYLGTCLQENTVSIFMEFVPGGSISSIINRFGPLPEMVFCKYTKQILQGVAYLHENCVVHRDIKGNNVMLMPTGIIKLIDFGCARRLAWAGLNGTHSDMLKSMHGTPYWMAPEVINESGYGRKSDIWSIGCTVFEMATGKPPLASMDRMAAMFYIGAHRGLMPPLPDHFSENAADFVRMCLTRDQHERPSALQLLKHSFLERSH
Conditions: YSK4; 1 uM; read-out: Percent Control (%). An outline of the steps:
as §1

For assay [3], the target named is T3, scanMAX Kinase assay panel (Homo sapiens, UniProt Q6P3R8).
T3 construct: purchased DiscoverX
T3 sequence (Q6P3R8 1-708): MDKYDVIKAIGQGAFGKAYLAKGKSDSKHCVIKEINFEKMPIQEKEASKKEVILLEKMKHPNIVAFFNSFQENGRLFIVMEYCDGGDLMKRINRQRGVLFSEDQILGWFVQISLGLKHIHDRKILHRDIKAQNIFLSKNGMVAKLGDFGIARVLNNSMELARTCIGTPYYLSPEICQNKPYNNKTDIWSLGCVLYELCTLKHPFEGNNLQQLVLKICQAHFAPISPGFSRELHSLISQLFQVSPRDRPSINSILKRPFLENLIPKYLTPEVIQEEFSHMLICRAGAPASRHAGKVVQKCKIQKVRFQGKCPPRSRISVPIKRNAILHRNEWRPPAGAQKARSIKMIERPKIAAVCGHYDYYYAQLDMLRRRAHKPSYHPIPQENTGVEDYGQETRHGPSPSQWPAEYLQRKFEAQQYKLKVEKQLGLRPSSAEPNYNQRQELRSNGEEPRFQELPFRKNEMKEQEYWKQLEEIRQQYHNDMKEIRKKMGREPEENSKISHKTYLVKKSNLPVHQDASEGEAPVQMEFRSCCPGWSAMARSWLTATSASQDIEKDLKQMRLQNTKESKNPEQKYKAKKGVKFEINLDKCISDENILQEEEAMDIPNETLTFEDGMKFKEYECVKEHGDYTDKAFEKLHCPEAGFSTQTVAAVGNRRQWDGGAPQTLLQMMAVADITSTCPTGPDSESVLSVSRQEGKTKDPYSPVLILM
The settings on record: NEK5; 1 uM; read-out: Percent Control (%). In short, it runs like this: as §1

Assay [4] addresses T4, scanMAX Kinase assay panel (Homo sapiens, UniProt Q8N568).
T4 construct: purchased DiscoverX
The settings on record: DCAMKL2; 1 uM; read-out: Percent Control (%). In short, it runs like this:
as §1

T4 sequence (Q8N568 whole entry): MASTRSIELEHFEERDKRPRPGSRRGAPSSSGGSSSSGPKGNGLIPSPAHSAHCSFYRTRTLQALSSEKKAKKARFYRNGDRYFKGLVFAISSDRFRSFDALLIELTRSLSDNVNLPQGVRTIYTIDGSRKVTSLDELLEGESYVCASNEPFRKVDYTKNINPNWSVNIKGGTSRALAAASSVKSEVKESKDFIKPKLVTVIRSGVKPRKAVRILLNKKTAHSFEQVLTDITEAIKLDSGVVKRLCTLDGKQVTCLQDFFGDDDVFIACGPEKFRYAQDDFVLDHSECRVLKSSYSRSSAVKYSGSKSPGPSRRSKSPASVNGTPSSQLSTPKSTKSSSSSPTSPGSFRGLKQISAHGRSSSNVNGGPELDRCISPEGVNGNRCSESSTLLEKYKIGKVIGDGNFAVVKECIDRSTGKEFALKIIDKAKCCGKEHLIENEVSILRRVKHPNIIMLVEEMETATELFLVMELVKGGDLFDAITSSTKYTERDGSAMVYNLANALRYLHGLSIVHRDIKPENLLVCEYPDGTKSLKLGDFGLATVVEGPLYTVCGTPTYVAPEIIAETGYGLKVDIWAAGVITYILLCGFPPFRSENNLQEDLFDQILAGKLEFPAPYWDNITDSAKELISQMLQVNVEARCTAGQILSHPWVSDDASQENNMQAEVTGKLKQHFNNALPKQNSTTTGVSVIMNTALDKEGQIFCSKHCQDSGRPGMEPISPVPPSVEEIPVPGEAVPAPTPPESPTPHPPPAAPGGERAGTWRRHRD
T1 sequence (Q07912 whole entry): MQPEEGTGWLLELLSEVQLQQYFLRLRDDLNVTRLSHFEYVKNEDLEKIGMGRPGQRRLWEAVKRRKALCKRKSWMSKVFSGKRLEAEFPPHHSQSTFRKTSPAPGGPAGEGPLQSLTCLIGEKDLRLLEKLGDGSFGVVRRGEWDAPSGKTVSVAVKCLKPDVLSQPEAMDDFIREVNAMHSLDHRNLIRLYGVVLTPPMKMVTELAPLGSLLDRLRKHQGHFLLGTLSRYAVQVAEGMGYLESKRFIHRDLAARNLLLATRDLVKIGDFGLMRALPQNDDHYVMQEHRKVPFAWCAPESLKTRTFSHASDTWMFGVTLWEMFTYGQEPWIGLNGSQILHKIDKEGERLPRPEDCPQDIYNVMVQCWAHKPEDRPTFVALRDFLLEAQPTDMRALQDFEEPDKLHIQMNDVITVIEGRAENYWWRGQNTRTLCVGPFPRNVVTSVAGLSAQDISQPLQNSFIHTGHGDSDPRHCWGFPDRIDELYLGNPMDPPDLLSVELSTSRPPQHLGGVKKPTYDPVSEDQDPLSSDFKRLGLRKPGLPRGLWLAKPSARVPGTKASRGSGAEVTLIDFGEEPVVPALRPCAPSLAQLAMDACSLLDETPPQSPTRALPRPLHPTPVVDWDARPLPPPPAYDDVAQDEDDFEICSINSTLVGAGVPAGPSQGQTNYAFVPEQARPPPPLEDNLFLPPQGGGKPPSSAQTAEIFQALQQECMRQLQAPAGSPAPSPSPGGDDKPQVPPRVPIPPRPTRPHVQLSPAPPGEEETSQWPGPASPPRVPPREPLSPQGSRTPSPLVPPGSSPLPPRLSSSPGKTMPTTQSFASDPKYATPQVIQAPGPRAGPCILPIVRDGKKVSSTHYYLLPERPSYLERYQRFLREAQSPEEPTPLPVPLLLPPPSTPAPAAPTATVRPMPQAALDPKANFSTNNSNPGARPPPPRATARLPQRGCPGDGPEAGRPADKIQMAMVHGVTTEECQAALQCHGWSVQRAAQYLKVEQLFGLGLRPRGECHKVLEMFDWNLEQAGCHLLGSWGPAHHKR

With `Cc1ccc(C(=O)Nc2ccc(CN3CCN(C)CC3)c(C(F)(F)F)c2)cc1C#Cc1cnc2c(Nc3cnn(C)c3)cccn12` [Example 1, 4-methyl-3-((8-((1-methyl-1H-pyrazol-4-yl)amino)imidazo[1,2-a]pyridin-3-yl)ethynyl)-N-(4-((4-methylpiperazin-1-yl)methyl)-3-(trifluoromethyl)phenyl)benzamide], the remaining binding at 1 µM in assay [1] worked out at 2%; in assay [2], 2%; in assay [3], 2%; in assay [4], 91%.
On to `Cc1ccc(NC(=O)C2(C(=O)Nc3ccc(F)cc3)CC2)cc1C#Cc1cnc2c(Nc3cnn(C(C)C)c3)cccn12` [Example 78], for which the remaining binding at 1 µM in assay [1] was 100%; in assay [2], 71%; in assay [3], 100%; in assay [4], 100%.
Turning to `Cc1cn(-c2cc(NC(=O)c3ccc(C)c(C#Cc4cnc5c(Nc6cnn(C)c6)cccn45)c3)cc(C(F)(F)F)c2)cn1` [Example 12, 4-methyl-N-(3-(4-methyl-1H-imidazol-1-yl)-5-(trifluoromethyl)phenyl)-3-((8-((1-methyl-1H-pyrazol-4-yl)amino)imidazo[1,2-a]pyridin-3-yl)ethynyl)benzamide], the remaining binding at 1 µM stood at 28% in assay [1], 2% in assay [2], 86% in assay [3] and 78% in assay [4].
